Test results as given in patent US10500166B2, “Methods for the treatment of erectile dysfunction using fispemifene” (QUATRX PHARMACEUTICALS, priority 2007, dated 2019).

Tests used:
Type in all cases: in vivo, human
[1] = test system: SHBG (sex hormone-binding globulin); assay: Example 3 study in hypogonadal men: serum sex hormone binding globulin (ITT); conditions: Baseline (Visit 2)
Procedure: (§1) A randomized, double-blind, placebo controlled, parallel-group study of once-daily doses of fispemifene (100, 200, and 300 mg/day) given for 4 weeks was conducted in a population of hypogonadal men. Subjects were required to meet all of the following inclusion criteria at screening and prior to randomization to be eligible for the study:
(§2) There were 77 subjects total. The number of subjects randomized to the 100 mg fispemifene, 200 mg fispemifene, 300 mg fispemifene, and placebo arms were 21, 21, 19, and 16, respectively.
(§3) Subjects were randomly assigned to one of four treatment groups in a 1:1:1:1 ratio: • Treatment A (100 mg): fispemifene 100 mg+placebo+placebo; • Treatment B (200 mg): fispemifene 100 mg+fispemifene 100 mg+placebo; • Treatment C (300 mg): fispemifene 100 mg+fispemifene 100 mg+fispemifene 100 mg; and • Treatment D (Placebo): placebo+placebo+placebo.
(§4) Subjects took one dose (three capsules) of study medication once a day at home for 4 weeks. Capsules were to be taken in the morning immediately after breakfast, with the exception of the morning of the Week 4 visit. Capsules were not to be taken on the morning of the Week 4 visit because trough plasma levels of fispemifene were determined by a blood sample taken at this visit. Each subject was randomly assigned to treatment with one of the 3 different dose regimens of fispemifene or placebo vehicle. Each subject received a 4 week supply of study drug.
(§5) Blood samples were taken from the subjects within 1 week prior to dosing with study drug to establish baseline values; after 2 and 4 weeks of randomization; and 2 weeks after the last dose of study drug. Serum was prepared from those samples and used to determine the mean % change from baseline in total testosterone, free testosterone, SHBG (sex hormone-binding globulin), DHT (dihydrotestosterone), E2 (estradiol), LH (luteinizing hormone), FSH (follicle stimulating hormone), and inhibin B.
(§6) 3. Percent change from baseline in SHBG, DHT, E2, LH, FSH, inhibin B, and testosterone/E2 ratio at Weeks 2, 4, and 6.

serum testosterone = assay: Phase I repeated dose study 101-50202: serum total testosterone; conditions: for increase of the mean serum total testosterone compared to baseline: 28 days, healthy men
Description: Fispemifene has been studied in two phase I studies in humans—in a single dose and a repeated dose study. Effect of fispemifene on hormone levels was one main focus of the repeated dose study. The phase I repeated dose study (number 101-50202) was a randomized, double-blind, placebo-controlled 28-day dose-escalation study performed in 31 healthy, elderly men, aged 50-68 years. The main objective of the study was to investigate the tolerability, safety and pharmacokinetics of fispemifene after repeated oral doses, but the study focused also on the effects of fispemifene on serum free and total testosterone, estradiol, and other relevant hormones. The fispemifene doses 10, 30, 100 and 300 mg per day and placebo were administered once every morning as capsules containing 10 mg or 100 mg of fispemifene, or placebo.
The variables for safety and tolerability were adverse events, vital signs, 12-lead ECG, clinical laboratory evaluations, physical examination, ultrasound examinations (mammary glands) and inhibin B. For pharmacokinetics, the concentrations of fispemifene and its metabolite(s) were to be evaluated. For pharmacodynamics, serum concentrations of FSH, LH, estradiol, testosterone, SHBG, prolactin, aldosterone, cortisol and TSH before and during treatment were measured and compared with the concentrations in the placebo-group.

E2 (estradiol) = assay: Example 3 study in hypogonadal men: serum estradiol (ITT); conditions: for Estradiol, Max / Estradiol, Mean ± SD / Estradiol, Median / Estradiol, Min: Baseline (Visit 2);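 as to Estradiol, Max: estradiol concentrations in pg/mL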;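 as to Estradiol, Mean ± SD: estradiol concentrations in pg/mL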;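 as to Estradiol, Median: estradiol concentrations in pg/mL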;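 as to Estradiol, Min: estradiol concentrations in pg/mL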
Procedure: as §1, §2, §3, §4, §5, §6

[2] = 100 mg/day, to Week 6 (2 weeks after discontinuation)
[3] = 200 mg/day, to Week 6 (2 weeks after discontinuation)
[4] = 300 mg/day, to Week 6 (2 weeks after discontinuation)

Compound: OCCOCCOc1ccc(/C(=C(/CCCl)c2ccccc2)c2ccccc2)cc1 [Fispemifene, (Z)-2-{2-[4-(4-Chloro-1,2-diphenylbut-1-enyl)phenoxy]ethoxy}ethanol]
- Sex Hormone Binding Globulin, Max ([1]; 100 mg/day): 35.0 nmol/L
- Sex Hormone Binding Globulin, Mean ± SD ([1]; 100 mg/day): 18.4 ± 6.96 nmol/L
- Sex Hormone Binding Globulin, Median ([1]; 100 mg/day): 17.0 nmol/L
- Sex Hormone Binding Globulin, Min ([1]; 100 mg/day): 8.5 nmol/L
- Sex Hormone Binding Globulin, Max ([1]; 200 mg/day): 51.0 nmol/L
- Sex Hormone Binding Globulin, Mean ± SD ([1]; 200 mg/day): 19.5 ± 11.12 nmol/L
- Sex Hormone Binding Globulin, Median ([1]; 200 mg/day): 18.0 nmol/L
- Sex Hormone Binding Globulin, Min ([1]; 200 mg/day): 3.7 nmol/L
- Sex Hormone Binding Globulin, Max ([1]; 300 mg/day): 48.0 nmol/L
- Sex Hormone Binding Globulin, Mean ± SD ([1]; 300 mg/day): 20.0 ± 10.28 nmol/L
- Sex Hormone Binding Globulin, Median ([1]; 300 mg/day): 19.0 nmol/L
- Sex Hormone Binding Globulin, Min ([1]; 300 mg/day): 5.6 nmol/L
- Serum total testosterone, Mean (serum testosterone; 10 mg/day, Baseline): 19.33 nmol/L
- Serum total testosterone, Mean (serum testosterone; 10 mg/day, Day 8): 19.83 nmol/L
- Serum total testosterone, Mean (serum testosterone; 10 mg/day, Day 15): 20.50 nmol/L
- Serum total testosterone, Mean (serum testosterone; 10 mg/day, Day 22): 22.00 nmol/L
- Serum total testosterone, Mean (serum testosterone; 10 mg/day, Day 28): 17.40 nmol/L
- Serum total testosterone, Mean (serum testosterone; 30 mg/day, Baseline): 15.00 nmol/L
- Serum total testosterone, Mean (serum testosterone; 30 mg/day, Day 15): 15.00 nmol/L
- Serum total testosterone, Mean (serum testosterone; 30 mg/day, Day 22): 15.80 nmol/L
- Serum total testosterone, Mean (serum testosterone; 30 mg/day, Day 28): 14.80 nmol/L
- testosterone compared with placebo (serum testosterone; 100 mg and 300 mg): increased statistically significantly
- subjects in whom increase in testosterone serum concentration was seen (serum testosterone; 100 mg or 300 mg, 28-day treatment period): all the subjects
- increase of the mean serum total testosterone compared to baseline (serum testosterone; 100 mg/day): 32%
- increase of the mean serum total testosterone compared to baseline (serum testosterone; 100 mg/day, listed as fispemifene): about 32%
- Serum total testosterone, Mean (serum testosterone; 100 mg/day, Baseline): 14.27 nmol/L
- Serum total testosterone, Mean (serum testosterone; 100 mg/day, Day 8): 18.67 nmol/L
- Serum total testosterone, Mean (serum testosterone; 100 mg/day, Day 15): 19.00 nmol/L
- Serum total testosterone, Mean (serum testosterone; 100 mg/day, Day 22): 17.83 nmol/L
- Serum total testosterone, Mean (serum testosterone; 100 mg/day, Day 28): 18.83 nmol/L
- men with serum testosterone level above the upper limit of normal range (33 nmol/L) during treatment (serum testosterone; 300 mg/day (highest dose)): Two out of six
- increase of the mean serum total testosterone compared to baseline (serum testosterone; 300 mg/day): 75%
- increase of the mean serum total testosterone compared to baseline (serum testosterone; 300 mg/day, listed as fispemifene): about 75%
- Serum total testosterone, Mean (serum testosterone; 300 mg/day, Baseline): 15.67 nmol/L
- Serum total testosterone, Mean (serum testosterone; 300 mg/day, Day 8): 23.17 nmol/L
- Serum total testosterone, Mean (serum testosterone; 300 mg/day, Day 15): 27.00 nmol/L
- Serum total testosterone, Mean (serum testosterone; 300 mg/day, Day 22): 27.83 nmol/L
- Serum total testosterone, Mean (serum testosterone; 300 mg/day, Day 28): 27.50 nmol/L
- effect on serum concentration of testosterone (serum testosterone; during the 28 days of treatment): increased
- effect on serum testosterone concentration (serum testosterone; healthy older men, within 28 days from the start of treatment): clinically and statistically significant and dose dependent increase
- Estradiol, Max (E2 (estradiol); 100 mg/day): 34.0 pg/mL
- Estradiol, Mean ± SD (E2 (estradiol); 100 mg/day): 18.2 ± 6.54 pg/mL
- Estradiol, Median (E2 (estradiol); 100 mg/day): 18.0 pg/mL
- Estradiol, Min (E2 (estradiol); 100 mg/day): 10.0 pg/mL
- Estradiol, % Change from Baseline, Max (E2 (estradiol); 100 mg/day, to Week 2): 131%
- Estradiol, % Change from Baseline, Median (E2 (estradiol); 100 mg/day, to Week 2): 32%
- Estradiol, % Change from Baseline, Max (E2 (estradiol); 100 mg/day, to Week 4): 110%
- Estradiol, % Change from Baseline, Median (E2 (estradiol); 100 mg/day, to Week 4): 31%
- Estradiol, % Change from Baseline, Max (E2 (estradiol); [2]): 80%
- Estradiol, % Change from Baseline, Median (E2 (estradiol); [2]): 13%
- Estradiol, Max (E2 (estradiol); 200 mg/day): 33.0 pg/mL
- Estradiol, Mean ± SD (E2 (estradiol); 200 mg/day): 19.2 ± 6.23 pg/mL
- Estradiol, Median (E2 (estradiol); 200 mg/day): 17.0 pg/mL
- Estradiol, Min (E2 (estradiol); 200 mg/day): 11.0 pg/mL
- Estradiol, % Change from Baseline, Max (E2 (estradiol); 200 mg/day, to Week 2): 171%
- Estradiol, % Change from Baseline, Median (E2 (estradiol); 200 mg/day, to Week 2): 23%
- Estradiol, % Change from Baseline, Max (E2 (estradiol); 200 mg/day, to Week 4): 150%
- Estradiol, % Change from Baseline, Median (E2 (estradiol); 200 mg/day, to Week 4): 43%
- Estradiol, % Change from Baseline, Max (E2 (estradiol); [3]): 176%
- Estradiol, % Change from Baseline, Median (E2 (estradiol); [3]): 23%
- Estradiol, Max (E2 (estradiol); 300 mg/day): 42.0 pg/mL
- Estradiol, Mean ± SD (E2 (estradiol); 300 mg/day): 20.8 ± 7.15 pg/mL
- Estradiol, Median (E2 (estradiol); 300 mg/day): 22.0 pg/mL
- Estradiol, Min (E2 (estradiol); 300 mg/day): 10.0 pg/mL
- Estradiol, % Change from Baseline, Max (E2 (estradiol); 300 mg/day, to Week 2): 108%
- Estradiol, % Change from Baseline, Median (E2 (estradiol); 300 mg/day, to Week 2): 33%
- Estradiol, % Change from Baseline, Max (E2 (estradiol); 300 mg/day, to Week 4): 100%
- Estradiol, % Change from Baseline, Median (E2 (estradiol); 300 mg/day, to Week 4): 29%
- Estradiol, % Change from Baseline, Max (E2 (estradiol); [4]): 77%
- Estradiol, % Change from Baseline, Median (E2 (estradiol); [4]): 0%
- effect on serum estradiol levels (E2 (estradiol); hypogonadal men, 100-300 mg/day for 4 weeks): increased
